From PubChem BioAssay (NCI)
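Interpolation was linear, between the two tested concentrations surrounding the appropriate level; five concentrations were tested over 48 hours in 96-well plates. Here, GI50 denotes the concentration required for 50% inhibition of growth. TGI is the concentration that stops growth completely.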

Experiments:
Assay in all cases: growth of human tumour cells (NCI), 48 h
[1] = system: 786-0 renal
[2] = system: A498 renal
[3] = system: A549 NSCLC
[4] = system: ACHN renal
[5] = system: BT-549 breast
[6] = system: CAKI-1 renal
[7] = system: CCRF-CEM leukemia
[8] = system: COLO 205 colon
[9] = system: DU-145 prostate
[10] = system: EKVX NSCLC
[11] = system: HCC-2998 colon
[12] = system: HCT-116 colon
[13] = system: HCT-15 colon
[14] = system: HL-60(TB) leukemia
[15] = system: HOP-62 NSCLC
[16] = system: HS 578T breast
[17] = system: HT29 colon
[18] = system: IGROV1 ovarian
[19] = system: K-562 leukemia
[20] = system: KM12 colon
[21] = system: LOX IMVI melanoma
[22] = system: M14 melanoma
[23] = system: MALME-3M melanoma
[24] = system: MCF7 breast
[25] = system: MDA-MB-231 breast
[26] = system: MDA-MB-435
[27] = system: MDA-MB-468 breast
[28] = system: MOLT-4 leukemia
[29] = system: NCI-H226 lung
[30] = system: NCI-H23 lung
[31] = system: NCI-H460 lung
[32] = system: NCI-H522 lung
[33] = system: NCI/ADR-RES ovarian
[34] = system: OVCAR-3 ovarian
[35] = system: OVCAR-4 ovarian
[36] = system: OVCAR-5 ovarian
[37] = system: OVCAR-8 ovarian
[38] = system: PC-3 prostate
[39] = system: RPMI-8226 leukemia
[40] = system: RXF 393 renal
[41] = system: SF-268 CNS
[42] = system: SF-295 CNS
[43] = system: SF-539 CNS
[44] = system: SK-MEL-2 melanoma
[45] = system: SK-MEL-28 melanoma
[46] = system: SK-MEL-5 melanoma
[47] = system: SK-OV-3 ovarian
[48] = system: SN12C renal
[49] = system: SNB-19 CNS
[50] = system: SR leukemia
[51] = system: SW-620 colon
[52] = system: T-47D breast
[53] = system: TK-10 renal
[54] = system: U251 CNS
[55] = system: UACC-257 melanoma
[56] = system: UACC-62 melanoma
[57] = system: UO-31 renal

Compound `CN1CCN(c2ccc(C(=O)/C=C/c3ccc(Br)cc3)cc2)CC1` has a GI50 [1] of 29.5 µM, a TGI [1] greater than 100 µM and a GI50 [2] greater than 100 µM. It also gave a TGI [2] greater than 100 µM, a GI50 [3] of 28.1 µM and a TGI [3] greater than 100 µM. For the same compound, the GI50 [4] was 54.9 µM, the TGI [4] was greater than 100 µM and the GI50 [5] was 12 µM. It also gave a TGI [5] of 46.7 µM, a GI50 [6] of 32.2 µM and a TGI [6] greater than 100 µM. It also gave a GI50 [7] of 40.9 µM, a TGI [7] of 95.5 µM and a GI50 [8] of 50.1 µM. It also gave a TGI [8] greater than 100 µM, a GI50 [9] of 86.6 µM and a TGI [9] greater than 100 µM. For the same compound, the GI50 [10] was greater than 100 µM, the TGI [10] was greater than 100 µM and the GI50 [11] was 15.2 µM. The TGI [11] was 50.4 µM, the GI50 [12] was 3.54 µM and the TGI [12] was 18.5 µM. For the same compound, the GI50 [13] was 5.64 µM, the TGI [13] was greater than 100 µM and the GI50 [14] was 10.7 µM. For the same compound, the TGI [14] was 33.6 µM, the GI50 [15] was greater than 100 µM and the TGI [15] was greater than 100 µM. It also gave a GI50 [16] greater than 100 µM, a TGI [16] greater than 100 µM and a GI50 [17] of 15.8 µM. It also gave a TGI [17] greater than 100 µM, a GI50 [18] of 34.5 µM and a TGI [18] greater than 100 µM. For the same compound, the GI50 [19] was 6.96 µM, the TGI [19] was 78.5 µM and the GI50 [20] was 16.6 µM. For the same compound, the TGI [20] was greater than 100 µM, the GI50 [21] was 13.7 µM and the TGI [21] was 50.6 µM. The GI50 [22] was 36.6 µM, the TGI [22] was greater than 100 µM and the GI50 [23] was greater than 100 µM. It also gave a TGI [23] greater than 100 µM, a GI50 [24] of 5.67 µM and a TGI [24] greater than 100 µM. The GI50 [25] was greater than 100 µM, the TGI [25] was greater than 100 µM and the GI50 [26] was 22.4 µM. For the same compound, the TGI [26] was 98 µM, the GI50 [27] was 7.85 µM and the TGI [27] was 41 µM. For the same compound, the GI50 [28] was 31.3 µM, the TGI [28] was greater than 100 µM and the GI50 [29] was 45.5 µM. It also gave a TGI [29] greater than 100 µM, a GI50 [30] greater than 100 µM and a TGI [30] greater than 100 µM. For the same compound, the GI50 [31] was greater than 100 µM, the TGI [31] was greater than 100 µM and the GI50 [32] was greater than 100 µM. The TGI [32] was greater than 100 µM, the GI50 [33] was 76 µM and the TGI [33] was greater than 100 µM. The GI50 [34] was 24.4 µM, the TGI [34] was 96 µM and the GI50 [35] was 70.8 µM. It also gave a TGI [35] greater than 100 µM, a GI50 [36] of 51.9 µM and a TGI [36] greater than 100 µM. For the same compound, the GI50 [37] was 54.9 µM, the TGI [37] was greater than 100 µM and the GI50 [38] was 28.2 µM. The TGI [38] was greater than 100 µM, the GI50 [39] was 5.38 µM and the TGI [39] was 32.2 µM. It also gave a GI50 [40] of 17.2 µM, a TGI [40] greater than 100 µM and a GI50 [41] greater than 100 µM. It also gave a TGI [41] greater than 100 µM, a GI50 [42] of 41.3 µM and a TGI [42] greater than 100 µM. The GI50 [43] was 24.4 µM, the TGI [43] was greater than 100 µM and the GI50 [44] was greater than 100 µM. The TGI [44] was greater than 100 µM, the GI50 [45] was 76.2 µM and the TGI [45] was greater than 100 µM. For the same compound, the GI50 [46] was 22.5 µM, the TGI [46] was greater than 100 µM and the GI50 [47] was 53.9 µM. It also gave a TGI [47] greater than 100 µM, a GI50 [48] of 22.7 µM and a TGI [48] greater than 100 µM. It also gave a GI50 [49] greater than 100 µM, a TGI [49] greater than 100 µM and a GI50 [50] of 8.37 µM. It also gave a TGI [50] of 48.7 µM, a GI50 [51] of 23.2 µM and a TGI [51] greater than 100 µM. For the same compound, the GI50 [52] was 28.7 µM, the TGI [52] was greater than 100 µM and the GI50 [53] was greater than 100 µM. It also gave a TGI [53] greater than 100 µM, a GI50 [54] of 20.8 µM and a TGI [54] greater than 100 µM. The GI50 [55] was greater than 100 µM, the TGI [55] was greater than 100 µM and the GI50 [56] was 17.1 µM. The TGI [56] was 38.2 µM, the GI50 [57] was 16.9 µM and the TGI [57] was greater than 100 µM.
In the case of `O=c1oc2ccc(Cl)cc2c(=O)n1-c1ccc(I)cc1F`, the GI50 [27] is reported as 0.269 µM and the TGI [27] is reported as 0.87 µM.
Work on `CC(C)OC(=O)c1ccc2[nH]c(O)c(C(=Nc3ccc(N(C)C(=O)CN4CCN(C)CC4)cc3)c3ccccc3)c2c1` yielded a GI50 [27] of 0.964 µM and a TGI [27] of 2.46 µM.
Work on `Fc1ccc(Nc2nc(NCCNc3ccnc4cc(Cl)ccc34)nc(N3CCOCC3)n2)cc1` yielded a GI50 [27] of 1.96 µM and a TGI [27] of 4.83 µM.
For `Oc1cc(Cl)ccc1Oc1ccc(Cl)cc1Cl`, the GI50 [27] was 2.42 µM and the TGI [27] was 7.24 µM.
Work on `CCc1c[nH]c2ncnc(N3CC[C@@](N)(CNC(=O)c4ccc(F)cc4F)C3)c12` yielded a GI50 [27] of 15 µM and a TGI [27] of 63.7 µM.
`COC1CCN(Cc2ccc3c(NNC(=O)c4cnccn4)nc4cc(F)ccc4n23)C1` (stereo not given) gave a GI50 [27] of 0.916 µM and a TGI [27] of 4.27 µM.
`NCc1ccc(-n2c(-c3nonc3N)nc3cnccc32)cc1` gave a GI50 [27] of 2.75 µM and a TGI [27] of 11.8 µM.
`O=C(/C=C/c1ccccc1Cl)Nc1ncc(Cc2cc(Cl)ccc2Cl)s1` showed a GI50 [27] of 0.934 µM and a TGI [27] of 11.1 µM.
Compound `Cn1cc(-c2ccc3c(c2)CCN3C(=O)Cc2cccc(C(F)(F)F)c2)c2c(N)ncnc21` has a GI50 [27] of 3.71 µM and a TGI [27] of 29.2 µM.
With `COc1ccc2c(c1)nc(N)c1c3cccnc3cn21` the GI50 [27] was 0.294 µM and the TGI [27] was 3.45 µM.
In the case of `COc1ccccc1-c1c(C)nn2c(NCc3ccccn3)cc(C)nc12`, the GI50 [27] is reported as 1.66 µM and the TGI [27] is reported as greater than 40.4 µM.
Work on `Cc1ccc2c(c1)ncn2-c1ncnc2c1CC(C)c1ccccc1N2C` (stereo not given) yielded a GI50 [27] of 0.0492 µM and a TGI [27] of 19.2 µM.
Work on `COc1cnc2c(c1)C(=O)c1c-2n(CCCN2CCCC2)c(=O)c2cc(Cl)ccc12` yielded a GI50 [27] of 0.0635 µM and a TGI [27] of 2.04 µM.
